# Results as given in ChEMBL document CHEMBL1629583, “Establishment of in vitro susceptibility testing methodologies and comparative activities of piperacillin in combination with the penem {beta}-lactamase inhibitor BLI-489” (2009).
# Key:
# Assay type in all cases: functional
# Enterococcus faecalis [1] = assay: Antimicrobial activity against Enterococcus faecalis clinical isolate after 18 to 22 hrs by broth microdilution method
# Proteus vulgaris = assay: Antimicrobial activity against Proteus vulgaris clinical isolate after 18 to 22 hrs by broth microdilution method
# Enterococcus gallinarum = assay: Antimicrobial activity against Enterococcus gallinarum clinical isolate after 18 to 22 hrs by broth microdilution method
# Klebsiella pneumoniae [2] = assay: Antimicrobial activity against class A extended spectrum beta-lactamase- producing Klebsiella pneumoniae clinical isolate after 18 to 22 hrs by broth microdilution method
# Klebsiella pneumoniae [3] = assay: Antimicrobial activity against AmpC- producing Klebsiella pneumoniae clinical isolate after 18 to 22 hrs by broth microdilution method
# Escherichia coli [4] = assay: Antimicrobial activity against class A extended spectrum beta-lactamase- and class D OXA- producing Escherichia coli clinical isolate after 18 to 22 hrs by broth microdilution method
# Streptococcus pneumoniae [5] = assay: Antimicrobial activity against penicillin-susceptible Streptococcus pneumoniae clinical isolate after 18 to 22 hrs by broth microdilution method
# Enterobacter cloacae = assay: Antimicrobial activity against AmpC beta-lactamase-producing Enterobacter cloacae clinical isolate after 18 to 22 hrs by broth microdilution method
# [6] = system: Acinetobacter haemolyticus; assay: Antimicrobial activity against Acinetobacter haemolyticus clinical isolate after 18 to 22 hrs by broth microdilution method
# Streptococcus agalactiae = assay: Antimicrobial activity against Streptococcus agalactiae clinical isolate after 18 to 22 hrs by broth microdilution method
# Enterococcus faecalis [7] = assay: Antimicrobial activity against vancomycin-resistant Enterococcus faecalis clinical isolate after 18 to 22 hrs by broth microdilution method
# Escherichia coli [8] = assay: Antimicrobial activity against class A extended spectrum beta-lactamase- producing Escherichia coli clinical isolate after 18 to 22 hrs by broth microdilution method
# Citrobacter koseri = assay: Antimicrobial activity against Citrobacter koseri clinical isolate after 18 to 22 hrs by broth microdilution method
# [9] = system: Haemophilus parainfluenzae; assay: Antimicrobial activity against Haemophilus parainfluenzae clinical isolate after 18 to 22 hrs by broth microdilution method
# Citrobacter freundii [10] = assay: Antimicrobial activity against Citrobacter freundii clinical isolate after 18 to 22 hrs by broth microdilution method
# Moraxella catarrhalis = assay: Antimicrobial activity against Moraxella catarrhalis clinical isolate after 18 to 22 hrs by broth microdilution method
# [11] = system: Acinetobacter calcoaceticus; assay: Antimicrobial activity against Acinetobacter calcoaceticus clinical isolate after 18 to 22 hrs by broth microdilution method
# Providencia stuartii = assay: Antimicrobial activity against Providencia stuartii clinical isolate after 18 to 22 hrs by broth microdilution method
# Citrobacter freundii [12] = assay: Antimicrobial activity against AmpC beta-lactamase-producing Citrobacter freundii clinical isolate after 18 to 22 hrs by broth microdilution method
# Enterococcus hirae = assay: Antimicrobial activity against Enterococcus hirae clinical isolate after 18 to 22 hrs by broth microdilution method
# [13] = system: Staphylococcus haemolyticus; assay: Antimicrobial activity against Staphylococcus haemolyticus clinical isolate after 18 to 22 hrs by broth microdilution method
# Acinetobacter johnsonii = assay: Antimicrobial activity against Acinetobacter johnsonii clinical isolate after 18 to 22 hrs by broth microdilution method
# Haemophilus influenzae = assay: Antimicrobial activity against beta-lactamase-producing Haemophilus influenzae clinical isolate after 18 to 22 hrs by broth microdilution method
# Streptococcus pyogenes = assay: Antimicrobial activity against Streptococcus pyogenes clinical isolate after 18 to 22 hrs by broth microdilution method
# Enterococcus faecium [14] = assay: Antimicrobial activity against vancomycin-resistant Enterococcus faecium clinical isolate after 18 to 22 hrs by broth microdilution method
# Staphylococcus aureus [15] = assay: Antimicrobial activity against methicillin-resistant Staphylococcus aureus clinical isolate after 18 to 22 hrs by broth microdilution method
# Enterococcus avium = assay: Antimicrobial activity against Enterococcus avium clinical isolate after 18 to 22 hrs by broth microdilution method
# Pseudomonas aeruginosa = assay: Antimicrobial activity against Pseudomonas aeruginosa clinical isolate after 18 to 22 hrs by broth microdilution method
# Klebsiella pneumoniae [16] = assay: Antimicrobial activity against class A extended spectrum beta-lactamase- and class D OXA- producing Klebsiella pneumoniae clinical isolate after 18 to 22 hrs by broth microdilution method
# Escherichia coli [17] = assay: Antimicrobial activity against AmpC beta-lactamase-producing Escherichia coli clinical isolate after 18 to 22 hrs by broth microdilution method
# Acinetobacter baumannii = assay: Antimicrobial activity against Acinetobacter baumannii clinical isolate after 18 to 22 hrs by broth microdilution method
# Enterococcus faecium [18] = assay: Antimicrobial activity against Enterococcus faecium clinical isolate after 18 to 22 hrs by broth microdilution method
# Burkholderia cepacia = assay: Antimicrobial activity against Burkholderia cepacia clinical isolate after 18 to 22 hrs by broth microdilution method
# Streptococcus pneumoniae [19] = assay: Antimicrobial activity against penicillin-intermediate Streptococcus pneumoniae clinical isolate after 18 to 22 hrs by broth microdilution method
# Klebsiella aerogenes [20] = assay: Antimicrobial activity against Enterobacter aerogenes clinical isolate after 18 to 22 hrs by broth microdilution method
# Staphylococcus aureus [21] = assay: Antimicrobial activity against methicillin-susceptible Staphylococcus aureus clinical isolate after 18 to 22 hrs by broth microdilution method
# Serratia marcescens [22] = assay: Antimicrobial activity against AmpC beta-lactamase-producing Serratia marcescens clinical isolate after 18 to 22 hrs by broth microdilution method
# Proteus mirabilis = assay: Antimicrobial activity against Proteus mirabilis clinical isolate after 18 to 22 hrs by broth microdilution method
# Serratia marcescens [23] = assay: Antimicrobial activity against Serratia marcescens clinical isolate after 18 to 22 hrs by broth microdilution method
# Klebsiella aerogenes [24] = assay: Antimicrobial activity against AmpC beta-lactamase-producing Enterobacter aerogenes clinical isolate after 18 to 22 hrs by broth microdilution method
smiles,measurement,setting,value
CCN1CCN(C(=O)N[C@@H](C(=O)N[C@@H]2C(=O)N3[C@@H]2SC(C)(C)[C@@H]3C(=O)O)c2ccccc2)C(=O)C1=O [PIPERACILLIN],MIC,Enterococcus faecalis [1],2 µg/mL
same,MIC50,Enterococcus faecalis [1],2 µg/mL
same,MIC90,Enterococcus faecalis [1],4 µg/mL
same,MIC50,Proteus vulgaris,64 µg/mL
same,MIC90,Proteus vulgaris,> 128 µg/mL
same,MIC50,Enterococcus gallinarum,4 µg/mL
same,MIC90,Enterococcus gallinarum,16 µg/mL
same,MIC,Klebsiella pneumoniae [2],> 128 µg/mL
same,MIC50,Klebsiella pneumoniae [2],> 128 µg/mL
same,MIC90,Klebsiella pneumoniae [2],> 128 µg/mL
same,MIC50,Klebsiella pneumoniae [3],> 128 µg/mL
same,MIC90,Klebsiella pneumoniae [3],> 128 µg/mL
same,MIC,Escherichia coli [4],> 128 µg/mL
same,MIC50,Escherichia coli [4],> 128 µg/mL
same,MIC90,Escherichia coli [4],> 128 µg/mL
same,MIC50,Streptococcus pneumoniae [5],0.015 µg/mL
same,MIC90,Streptococcus pneumoniae [5],0.03 µg/mL
same,MIC50,Enterobacter cloacae,> 128 µg/mL
same,MIC90,Enterobacter cloacae,> 128 µg/mL
same,MIC50,[6],4 µg/mL
same,MIC90,[6],128 µg/mL
same,MIC50,Streptococcus agalactiae,0.12 µg/mL
same,MIC90,Streptococcus agalactiae,0.25 µg/mL
same,MIC50,Enterococcus faecalis [7],2 µg/mL
same,MIC90,Enterococcus faecalis [7],> 128 µg/mL
same,MIC,Escherichia coli [8],> 128 µg/mL
same,MIC50,Escherichia coli [8],> 128 µg/mL
same,MIC90,Escherichia coli [8],> 128 µg/mL
same,MIC50,Citrobacter koseri,32 µg/mL
same,MIC90,Citrobacter koseri,> 128 µg/mL
same,MIC50,[9],0.06 µg/mL
same,MIC90,[9],0.5 µg/mL
same,MIC50,Citrobacter freundii [10],4 µg/mL
same,MIC90,Citrobacter freundii [10],> 128 µg/mL
same,MIC50,Moraxella catarrhalis,0.25 µg/mL
same,MIC90,Moraxella catarrhalis,8 µg/mL
same,MIC50,[11],> 128 µg/mL
same,MIC90,[11],> 128 µg/mL
same,MIC50,Providencia stuartii,2 µg/mL
same,MIC50,Citrobacter freundii [12],> 128 µg/mL
same,MIC90,Citrobacter freundii [12],> 128 µg/mL
same,MIC50,Enterococcus hirae,4 µg/mL
same,MIC90,Enterococcus hirae,16 µg/mL
same,MIC50,[13],> 128 µg/mL
same,MIC90,[13],> 128 µg/mL
same,MIC50,Acinetobacter johnsonii,4 µg/mL
same,MIC90,Acinetobacter johnsonii,128 µg/mL
same,MIC50,Haemophilus influenzae,8 µg/mL
same,MIC90,Haemophilus influenzae,32 µg/mL
same,MIC50,Streptococcus pyogenes,0.03 µg/mL
same,MIC90,Streptococcus pyogenes,0.06 µg/mL
same,MIC,Enterococcus faecium [14],> 128 µg/mL
same,MIC50,Enterococcus faecium [14],> 128 µg/mL
same,MIC50,Staphylococcus aureus [15],> 128 µg/mL
same,MIC50,Enterococcus avium,16 µg/mL
same,MIC90,Enterococcus avium,64 µg/mL
same,MIC50,Pseudomonas aeruginosa,16 µg/mL
same,MIC90,Pseudomonas aeruginosa,> 128 µg/mL
same,MIC50,Klebsiella pneumoniae [16],> 128 µg/mL
same,MIC90,Klebsiella pneumoniae [16],> 128 µg/mL
same,MIC50,Escherichia coli [17],> 128 µg/mL
same,MIC90,Escherichia coli [17],> 128 µg/mL
same,MIC50,Acinetobacter baumannii,> 128 µg/mL
same,MIC90,Acinetobacter baumannii,> 128 µg/mL
same,MIC50,Enterococcus faecium [18],32 µg/mL
same,MIC90,Enterococcus faecium [18],> 128 µg/mL
same,MIC50,Burkholderia cepacia,32 µg/mL
same,MIC90,Burkholderia cepacia,128 µg/mL
same,MIC50,Streptococcus pneumoniae [19],0.25 µg/mL
same,MIC90,Streptococcus pneumoniae [19],1 µg/mL
same,MIC50,Klebsiella aerogenes [20],4 µg/mL
same,MIC90,Klebsiella aerogenes [20],128 µg/mL
same,MIC50,Staphylococcus aureus [21],64 µg/mL
same,MIC90,Staphylococcus aureus [21],> 128 µg/mL
same,MIC50,Serratia marcescens [22],> 128 µg/mL
same,MIC90,Serratia marcescens [22],> 128 µg/mL
same,MIC50,Proteus mirabilis,> 128 µg/mL
same,MIC90,Proteus mirabilis,> 128 µg/mL
same,MIC50,Serratia marcescens [23],4 µg/mL
same,MIC90,Serratia marcescens [23],> 128 µg/mL
same,MIC50,Klebsiella aerogenes [24],> 128 µg/mL
same,MIC90,Klebsiella aerogenes [24],> 128 µg/mL
